According to US6914045B2, “Glycopeptide antibiotics” (Wyeth Holdings Corporation, priority 2001, dated 2005):
≈ marks a conversion by molar mass, not a printed value. Numbered stars: 1 amine (or outer) side, 2 acyl side, 3 side chain; on linkers, the order of the positions; unused ones are H or OH. Square brackets hold non-standard residues; d marks the D form. Peptide text beside a SMILES is read from it. * marks the point of attachment. ξ: configuration not given here. X1 = N=C1NCC(C(O)C(N[*:1])C(=O)[*:2])N1C1OC(CO)C(O)C(O)C1O; ξEnduracididine(βξ-OH,4'ξ) = N=C1NCC(C(O)C(N)C(=O)O)N1; ξPhe(4-Cl,βξ-Me) = CC(c1ccc(Cl)cc1)C(N)C(=O)O; X2 = OCC1OC(OC2C(CO)OC(*)C(O)C2O)C(O)C(O)C1O

Legend:
Experiment in all cases: in vitro antibacterial evaluation, MIC by broth dilution
Assay type in all cases: cell-based
Enterococcus sp. = conditions: broth dilution, 18 hours at 35° C.
Method in brief: (§1)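 Test organisms, which included recent clinical isolates resistant to methicillin, penicillin and/or vancomycin, were inoculated at 5×10^5 CFU/mL into Muller-Hinton II […] containing antibiotic at 64-0.06 μg/mL. Minimum inhibitory concentrations were then read as the lowest level inhibiting growth.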

Escherichia coli = conditions: 18 hours at 35° C.
Method in brief: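 Inoculum 5×10^5 CFU/mL; concentrations 64 to 0.06 μg/mL; MIC defined as lowest inhibitory level. Conducted by broth dilution under NCCLS guidelines.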

Staphylococcus sp. = conditions: broth dilution, 18 hours at 35° C.
Method in brief: as §1

Streptococcus sp. = conditions: broth dilution, 18 hours at 35° C.
Method in brief: as §1

MIC Enterococcus avium (GC 4558) (Enterococcus sp.; Enterococcus avium (GC 4558)): >128 µg/mL
MIC Enterococcus faecalis (ATCC 29212) (Enterococcus sp.; Enterococcus faecalis (ATCC 29212)): >128 µg/mL
MIC Enterococcus faecalis (GC 4553) (Enterococcus sp.; Enterococcus faecalis (GC 4553)): >128 µg/mL
MIC Enterococcus faecalis (GC 4554) (Enterococcus sp.; Enterococcus faecalis (GC 4554)): >128 µg/mL
MIC Enterococcus faecium (GC 2243) (Enterococcus sp.; Enterococcus faecium (GC 2243)): >128 µg/mL
MIC Enterococcus faecium (GC 4556) (Enterococcus sp.; Enterococcus faecium (GC 4556)): >128 µg/mL
MIC Enterococcus faecium (GC 4557) (Enterococcus sp.; Enterococcus faecium (GC 4557)): >128 µg/mL
MIC Enterococcus faecalis (ATCC 29212) (Enterococcus sp.; strain ATCC 29212): >128 µg/mL
MIC Enterococcus faecalis (GC 2242) (Enterococcus sp.; strain GC 2242): >128 µg/mL
MIC Enterococcus faecium (GC 2243) (Enterococcus sp.; strain GC 2243): >128 µg/mL
MIC Enterococcus faecalis (GC 4552) (Enterococcus sp.; strain GC 4552): >128 µg/mL
MIC Enterococcus faecalis (GC 4553) (Enterococcus sp.; strain GC 4553): >128 µg/mL
MIC Enterococcus faecalis (GC 4554) (Enterococcus sp.; strain GC 4554): >128 µg/mL
MIC Enterococcus faecium (GC 4556) (Enterococcus sp.; strain GC 4556): >128 µg/mL
MIC Enterococcus faecium (GC 4557) (Enterococcus sp.; strain GC 4557): >128 µg/mL
MIC Enterococcus avium (GC 4558) (Enterococcus sp.; strain GC 4558): >128 µg/mL
MIC Escherichia coli (ATCC 25922) (Escherichia coli; Escherichia coli (ATCC 25922)): >128 µg/mL
MIC Escherichia coli (GC 4559) (Escherichia coli; Escherichia coli (GC 4559)): >128 µg/mL
MIC Escherichia coli (GC 4560) (Escherichia coli; Escherichia coli (GC 4560)): 16 µg/mL (≈ 12 µM)
MIC Coagulase Negative Staphylococcus (GC 4547) (Staphylococcus sp.): 64 µg/mL (≈ 48.1 µM)
MIC Coagulase Negative Staphylococcus (GC 4548) (Staphylococcus sp.): 64 µg/mL (≈ 48.1 µM)
MIC Coagulase Negative Staphylococcus (GC 4549) (Staphylococcus sp.): 16 µg/mL (≈ 12 µM)
MIC Coagulase Negative Staphylococcus (GC 4551) (Staphylococcus sp.): 128 µg/mL (≈ 96.3 µM)
MIC Staphylococcus aureus (ATCC 29213) (Staphylococcus sp.): 64 µg/mL (≈ 48.1 µM)
MIC Staphylococcus aureus (GC 1131) (Staphylococcus sp.): 128 µg/mL (≈ 96.3 µM)
MIC Staphylococcus aureus (GC 4541) (Staphylococcus sp.): 64 µg/mL (≈ 48.1 µM)
MIC Staphylococcus aureus (GC 4542) (Staphylococcus sp.): >128 µg/mL
MIC Staphylococcus aureus (GC 4544) (Staphylococcus sp.): 64 µg/mL (≈ 48.1 µM)
MIC Staphylococcus aureus (GC 4545) (Staphylococcus sp.): 64 µg/mL (≈ 48.1 µM)
MIC Staphylococcus aureus-SMITH (GC 4543) (Staphylococcus sp.): 64 µg/mL (≈ 48.1 µM)
MIC Staphylococcus aureus (ATCC 29213) (Staphylococcus sp.; strain ATCC 29213): 64 µg/mL (≈ 48.1 µM)
MIC Staphylococcus aureus (GC 1131) (Staphylococcus sp.; strain GC 1131): 128 µg/mL (≈ 96.3 µM)
MIC Staphylococcus aureus (GC 4541) (Staphylococcus sp.; strain GC 4541): 64 µg/mL (≈ 48.1 µM)
MIC Staphylococcus aureus (GC 4542) (Staphylococcus sp.; strain GC 4542): >128 µg/mL
MIC Staphylococcus aureus (GC 4544) (Staphylococcus sp.; strain GC 4544): 64 µg/mL (≈ 48.1 µM)
MIC Staphylococcus aureus (GC 4545) (Staphylococcus sp.; strain GC 4545): 64 µg/mL (≈ 48.1 µM)
MIC Coagulase Negative Staphylococcus (GC 4547) (Staphylococcus sp.; strain GC 4547): 64 µg/mL (≈ 48.1 µM)
MIC Coagulase Negative Staphylococcus (GC 4548) (Staphylococcus sp.; strain GC 4548): 64 µg/mL (≈ 48.1 µM)
MIC Coagulase Negative Staphylococcus (GC 4549) (Staphylococcus sp.; strain GC 4549): 16 µg/mL (≈ 12 µM)
MIC Coagulase Negative Staphylococcus (GC 4551) (Staphylococcus sp.; strain GC 4551): 128 µg/mL (≈ 96.3 µM)
MIC Staphylococcus aureus-SMITH (GC 4543) (Staphylococcus sp.; strain SMITH GC 4543): 64 µg/mL (≈ 48.1 µM)
MIC Streptococcus agalactiae (GC 4564) (Streptococcus sp.; strain GC 4564): 32 µg/mL (≈ 24.1 µM)
MIC Streptococcus pyogenes (ID-3187) (Streptococcus sp.; strain ID-3187): 32 µg/mL (≈ 24.1 µM)
SMILES: CC(c1ccc(Cl)cc1)C1NC(=O)CNC(=O)C(CO)NC(=O)C(C(O)C2CNC(=N)N2C2OC(CO)C(O)C(O)C2O)NC(=O)C(C(O)C2CNC(=N)N2)NC(=O)C(Cc2ccc(OC3OC(CO)C(OC4OC(CO)C(O)C(O)C4O)C(O)C3O)cc2)NC1=O (stereo not drawn) [Example 262a, Cyclo[glycyl-4-chloro-β-methylphenylalanyl-O-(4-O-hexopyranosylhexopyranosyl)tyrosyl-3-(2-iminoimidazolidin-4-yl)seryl-3-(3-hexoopyranosyl-2-iminoimidazolidin-4-yl)serylseryl]] (cyclo(G[ξPhe(4-Cl,βξ-Me)]Y(X2)[ξEnduracididine(βξ-OH,4'ξ)][X1]S); configuration not given here)
MIC Staphylococcus haemolyticus (GC 4546) (Staphylococcus sp.): 64 µg/mL (≈ 48.1 µM)
MIC Staphylococcus haemolyticus (GC 4546) (Staphylococcus sp.; strain GC 4546): 64 µg/mL (≈ 48.1 µM)
